Our source for the EC50 values is patent US20150051176A1, “ARYL DERIVATIVES AS SPHINGOSINE-1 PHOSPHATE RECEPTORS MODULATORS” (Allergan, Inc., priority 2013, published 2015).

The structures appear in SMILES notation.

For orientation: EC50 means the concentration at which the effect is half-maximal. Lower therefore signals a more potent agent.

The target in the test is T1, human S1P1 receptor (Homo sapiens, UniProt P21453).
T1 construct: expressed in transfected cells; membranes used
T1 sequence (P21453 whole entry): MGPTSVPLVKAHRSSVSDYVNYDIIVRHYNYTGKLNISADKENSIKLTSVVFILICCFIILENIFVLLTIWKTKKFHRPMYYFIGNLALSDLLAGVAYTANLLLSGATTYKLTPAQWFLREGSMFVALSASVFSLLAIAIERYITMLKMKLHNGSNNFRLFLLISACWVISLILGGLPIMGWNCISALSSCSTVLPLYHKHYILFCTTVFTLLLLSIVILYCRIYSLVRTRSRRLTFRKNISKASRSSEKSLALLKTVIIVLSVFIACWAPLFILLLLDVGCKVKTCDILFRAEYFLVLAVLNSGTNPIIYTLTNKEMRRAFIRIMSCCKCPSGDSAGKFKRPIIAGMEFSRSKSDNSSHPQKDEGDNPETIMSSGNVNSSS
Briefly: GTP γ35S binding assay for S1P1 activity. The class given is biochemical. The following applies: membranes of cells stably expressing the S1P1 receptor, test concentrations 0.08 to 5,000 nM. The procedure:
Compounds were synthesized and tested for S1P1 activity using the GTP γ^35S binding assay. These compounds may be assessed for their ability to activate or block activation of the human S1P1 receptor in cells stably expressing the S1P1 receptor.
GTP γ^35S binding was measured in the medium containing (mM) HEPES 25, pH 7.4, MgCl2 10, NaCl 100, dithiothreitol 0.5, digitonin 0.003%, 0.2 nM GTP γ^35S, and 5 μg membrane protein in a volume of 150 μl. Test compounds were included in the concentration range from 0.08 to 5,000 nM unless indicated otherwise. Membranes were incubated with 100 μM 5′-adenylylimidodiphosphate for 30 min, and subsequently with 10 μM GDP for 10 min on ice. Drug solutions and membrane were mixed, and then reactions were initiated by adding GTP γ^35S and continued for 30 min at 25° C. Reaction mixtures were filtered over Whatman GF/B filters under vacuum, and washed three times with 3 mL of ice-cold buffer (HEPES 25, pH7.4, MgCl2 10 and NaCl 100). Filters were dried and mixed with scintillant, and counted for ^35S activity using a β-counter. Agonist-induced GTP γ^35S binding was obtained by subtracting that in the absence of agonist. Binding data were analyzed using a non-linear regression method. In case of antagonist assay, the reaction mixture contained 10 nM […] in the presence of test antagonist at concentrations ranging from 0.08 to 5000 nM.
In general terms: GTPγS is a poorly hydrolysed GTP analogue; its binding reports G protein activation.
The compound `Cc1ccc(CC(CCCCCCNCCCP(=O)(O)O)c2cccc(Cl)c2)cc1C` (centres unmarked) [3-{[7-(3-Chlorophenyl)-8-(3,4-dimethylphenyl)octyl]amino}propyl)phosphonic acid] yielded an EC50 of 169 nM. With `Cc1ccc(CC(CCCCCCCNCCC(=O)O)c2cc(F)cc(F)c2)cc1C` (centres unmarked) [3-{[8-(3,5-Difluorophenyl)-9-(3,4-dimethylphenyl)nonyl]amino}propanoic acid] the figure was 45.4 nM. Next, `Cc1ccc(CC(CCCCCCCNCCC(=O)O)c2cccc(Cl)c2)cc1C` (centres unmarked) [3-{[8-(3-Chlorophenyl)-9-(3,4-dimethylphenyl)nonyl]amino}propanoic acid]: 487 nM; `Cc1ccc(CC(CCCCCCCNCCCP(=O)(O)O)c2cccc(Cl)c2)cc1C` (centres unmarked) [3-{[8-(3-chlorophenyl)-9-(3,4-dimethylphenyl)nonyl]amino}propylphosphonic acid]: 8.18 nM; `O=C(O)CCNCCCCCCCCC(Cc1ccccc1)c1cccc(Cl)c1` (centres unmarked) [3-{[9-(3-Chlorophenyl)-10-phenyldecyl]amino}propanoic acid]: 21.8 nM. `Cc1ccc(CC(CCCCCCCNCCCP(=O)(O)O)c2cc(F)cc(F)c2)cc1C` (centres unmarked) [(3-{[8-(3,5-Difluorophenyl)-9-(3,4-dimethylphenyl)nonyl]amino}propyl)phosphonic acid] displayed an EC50 of 3.03 nM.

With `Cc1ccc(CC(CCCCCCCCNCCCP(=O)(O)O)c2cccc(Cl)c2)cc1C` (centres unmarked) [(3-{[9-(3-Chlorophenyl)-10-(3,4-dimethylphenyl)decyl]amino}propyl)phosphonic acid], it took 293 nM to reach a half-maximal effect (EC50). Next, `O=P(O)(O)CCCNCCCCCCCCC(Cc1ccccc1)c1cccc(Cl)c1` (centres unmarked) [(3-{[9-(3-Chlorophenyl)-10-phenyldecyl]amino}propyl)phosphonic acid]: 2.13 nM.
